Experimental data taken from patent US8952024B2, “Herbicidal pyrimidone derivatives” (E I du Pont de Nemours and Company, priority 2009, dated 2015).

Key:
Type in all cases: in vivo
[1] = system: oilseed rape (Brassica napus); test: Test C plant response; conditions: Postemergence, scale 0 to 100
Summary of the method: (§1)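 Efficacy is a visual percent-control score (0 none, 100 complete), judged against controls 14 days after application. Compounds go on in a non-phytotoxic solvent carrier with surfactant. A dash marks a missing result.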

[2] = system: winter wheat (Triticum aestivum); test: Test C plant response; conditions: Postemergence, scale 0 to 100
Summary of the method: as §1

[3] = system: field violet (Viola arvensis); test: Test C plant response; conditions: Postemergence, scale 0 to 100
Summary of the method: as §1

[4] = system: buckwheat (wild buckwheat, Polygonum convolvulus); test: Test C plant response; conditions: Postemergence, scale 0 to 100
Summary of the method: as §1

[5] = system: pigweed (Amaranthus retroflexus); test: Test C plant response; conditions: Postemergence, scale 0 to 100
Summary of the method: as §1

[6] = system: bluegrass (annual bluegrass, Poa annua); test: Test C plant response; conditions: Postemergence, scale 0 to 100
Summary of the method: as §1

[7] = system: spring barley (Hordeum vulgare); test: Test C plant response; conditions: Postemergence, scale 0 to 100
Summary of the method: as §1

[8] = system: wild oat (Avena fatua); test: Test C plant response; conditions: Postemergence, scale 0 to 100
Summary of the method: as §1

[9] = system: green foxtail (Setaria viridis); test: Test C plant response; conditions: Postemergence, scale 0 to 100
Summary of the method: as §1

[10] = system: goosegrass (Eleusine indica); test: Test B pre-/postemergence plant response; conditions: Preemergence, 62 g ai/ha; scale 0 to 100 (0 no effect, 100 complete control)

Q: How did the “Plant response rating: Oilseed Rape” value ([1]; 31 g ai/ha) turn out when `Cc1cc(C)cc(-n2c(-c3ccccc3)ncc(C(=O)C3=C(O)CCCC3=O)c2=O)c1` [Compound 33] was run?
A: Its value is 98.

Q: And the “Plant response rating: Oilseed Rape” value ([1]; 16 g ai/ha)?
A: Its value is 90.

Q: And the “Plant response rating: Oilseed Rape” value ([1]; 62 g ai/ha)?
A: Its value is 100.

Q: What about the “Plant response rating: Oilseed Rape” value ([1]; 125 g ai/ha) of the same compound?
A: The value was 100.

Q: What about the “Plant response rating: Wheat, Winter” value ([2]; 31 g ai/ha) of the same compound?
A: Its value is 0.

Q: And the “Plant response rating: Wheat, Winter” value ([2]; 16 g ai/ha)?
A: The value was 0.

Q: And the “Plant response rating: Wheat, Winter” value ([2]; 62 g ai/ha)?
A: The value was 5.

Q: And the “Plant response rating: Wheat, Winter” value ([2]; 125 g ai/ha)?
A: The value was 5.

Q: What about the “Plant response rating: Field Violet” value ([3]; 31 g ai/ha) of the same compound?
A: The value was 90.

Q: What about the “Plant response rating: Field Violet” value ([3]; 16 g ai/ha) of the same compound?
A: Its value is 65.

Q: And the “Plant response rating: Field Violet” value ([3]; 62 g ai/ha)?
A: The value was 95.

Q: And the “Plant response rating: Field Violet” value ([3]; 125 g ai/ha)?
A: The value was 95.

Q: What about the “Plant response rating: Buckwheat, Wild” value ([4]; 31 g ai/ha) of the same compound?
A: Its value is 65.

Q: And the “Plant response rating: Buckwheat, Wild” value ([4]; 16 g ai/ha)?
A: Its value is 60.

Q: What about the “Plant response rating: Buckwheat, Wild” value ([4]; 62 g ai/ha) of the same compound?
A: The value was 75.

Q: What about the “Plant response rating: Buckwheat, Wild” value ([4]; 125 g ai/ha) of the same compound?
A: The value was 75.

Q: And the “Plant response rating: Pigweed” value ([5]; 31 g ai/ha)?
A: Its value is 95.

Q: What about the “Plant response rating: Pigweed” value ([5]; 16 g ai/ha) of the same compound?
A: Its value is 75.

Q: And the “Plant response rating: Pigweed” value ([5]; 62 g ai/ha)?
A: The value was 95.

Q: And the “Plant response rating: Pigweed” value ([5]; 125 g ai/ha)?
A: Its value is 98.

Q: And the “Plant response rating: Bluegrass” value ([6]; 31 g ai/ha)?
A: Its value is 0.

Q: And the “Plant response rating: Bluegrass” value ([6]; 16 g ai/ha)?
A: Its value is 0.

Q: And the “Plant response rating: Bluegrass” value ([6]; 62 g ai/ha)?
A: The value was 15.

Q: And the “Plant response rating: Bluegrass” value ([6]; 125 g ai/ha)?
A: The value was 40.

Q: What about the “Plant response rating: Barley, Spring” value ([7]; 31 g ai/ha) of the same compound?
A: The value was 0.

Q: And the “Plant response rating: Barley, Spring” value ([7]; 16 g ai/ha)?
A: Its value is 0.

Q: What about the “Plant response rating: Barley, Spring” value ([7]; 62 g ai/ha) of the same compound?
A: Its value is 0.

Q: And the “Plant response rating: Barley, Spring” value ([7]; 125 g ai/ha)?
A: The value was 0.

Q: And the “Plant response rating: Oat, Wild” value ([8]; 31 g ai/ha)?
A: Its value is 0.

Q: And the “Plant response rating: Oat, Wild” value ([8]; 16 g ai/ha)?
A: The value was 0.

Q: And the “Plant response rating: Oat, Wild” value ([8]; 62 g ai/ha)?
A: Its value is 5.

Q: And the “Plant response rating: Oat, Wild” value ([8]; 125 g ai/ha)?
A: Its value is 10.

Q: And the “Plant response rating: Foxtail, Green” value ([9]; 31 g ai/ha)?
A: The value was 95.

Q: What about the “Plant response rating: Foxtail, Green” value ([9]; 16 g ai/ha) of the same compound?
A: Its value is 80.

Q: What about the “Plant response rating: Foxtail, Green” value ([9]; 62 g ai/ha) of the same compound?
A: The value was 95.

Q: What about the “Plant response rating: Foxtail, Green” value ([9]; 125 g ai/ha) of the same compound?
A: Its value is 95.

Q: What about the “Plant response rating, Goosegrass” value [10] of the same compound?
A: Its value is 85.
